Test results published in publication PMC11581908 (Nature chemical biology, 2024).

Tests used:
FBXO22 = target: T1, FBXO22 (Homo sapiens, UniProt Q8NEZ5); assay: cysteine-directed ABPP in cells; type: cell-based
T1 sequence (Q8NEZ5 1-403): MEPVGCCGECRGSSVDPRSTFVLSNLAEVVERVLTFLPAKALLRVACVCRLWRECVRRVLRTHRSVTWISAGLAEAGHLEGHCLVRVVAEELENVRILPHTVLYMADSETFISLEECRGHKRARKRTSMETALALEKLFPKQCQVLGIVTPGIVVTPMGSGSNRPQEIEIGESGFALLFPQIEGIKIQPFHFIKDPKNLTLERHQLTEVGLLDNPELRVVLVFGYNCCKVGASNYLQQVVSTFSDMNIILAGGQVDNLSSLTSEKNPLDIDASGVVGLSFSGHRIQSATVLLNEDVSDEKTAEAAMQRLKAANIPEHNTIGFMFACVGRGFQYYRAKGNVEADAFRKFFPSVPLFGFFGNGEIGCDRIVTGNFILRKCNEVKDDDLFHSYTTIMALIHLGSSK

FKBP12 = FKBP12 (Homo sapiens, UniProt P62942); type: cell-based
Sequence of FKBP12 (P62942 2-108): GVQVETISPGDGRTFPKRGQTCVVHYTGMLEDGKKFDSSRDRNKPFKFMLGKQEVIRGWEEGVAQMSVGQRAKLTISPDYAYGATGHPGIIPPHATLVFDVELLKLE

CCC(C)(C)C(=O)C(=O)N1CCCC[C@H]1C(=O)O[C@H](CCc1ccc(OC)c(OC)c1)c1cccc(OCC(=O)NCCCOCCOCCOCCCN(C(=O)CCl)C(C(=O)NCc2ccccc2)c2nc3ccccc3s2)c1 (some centres unmarked) [compound 1, 22-SLF]
% of C228 blocked at 2 μM (FBXO22): ~ 20 % of C228 blocked at 2 μM
EC50 (FKBP12): 1960 nM
